Assay results as given in ChEMBL document CHEMBL1148618, “Novel benzodiazepine photoaffinity probe stereoselectively labels a site deep within the membrane-spanning domain of the cholecystokinin receptor” (J Med Chem, 2006).

What was measured:
[1] = molecular target: T1, Cholecystokinin receptor type A (Rattus norvegicus, UniProt P30551); assay: Displacement of [125I]D-Tyr-Gly-[(Nle28,31)CCK-26-33] from rat CCK receptor expressed in CHO cells; assay type: cell-based
T1 sequence (P30551 whole entry): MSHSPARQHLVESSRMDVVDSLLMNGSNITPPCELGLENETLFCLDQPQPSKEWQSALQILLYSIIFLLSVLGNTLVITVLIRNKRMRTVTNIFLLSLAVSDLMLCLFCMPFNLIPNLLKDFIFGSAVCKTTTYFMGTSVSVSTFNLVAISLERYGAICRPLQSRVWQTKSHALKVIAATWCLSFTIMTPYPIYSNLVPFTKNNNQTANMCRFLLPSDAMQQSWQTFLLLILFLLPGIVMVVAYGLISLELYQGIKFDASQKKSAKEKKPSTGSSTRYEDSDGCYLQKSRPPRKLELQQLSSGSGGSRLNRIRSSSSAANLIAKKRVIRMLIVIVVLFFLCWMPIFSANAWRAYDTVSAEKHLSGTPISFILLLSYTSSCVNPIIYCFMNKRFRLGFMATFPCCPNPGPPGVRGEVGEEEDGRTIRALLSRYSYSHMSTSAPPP

[2] = molecular target: T2, Cholecystokinin receptor type A (Rattus norvegicus) (UniProt P30551); assay: Activity at CCK receptor in SD rat at 1 uM expressed in pancreatic acinar cell line; assay type: functional; conditions: filed as antagonist
T2 sequence (whole entry): T1 sequence (P30551 whole entry)

[3] = molecular target: T1, Cholecystokinin receptor type A; assay: Intrinsic agonistic activity at CCK receptor in SD rat at 1 uM expressed in pancreatic acinar cell line; assay type: functional

| SMILES | IC50 [1] | Activity [2] | EC50 [3] |
| --- | --- | --- | --- |
| COc1ccc(N(C)C(=O)CN2C(=O)[C@H](NC(=O)Nc3cccc(C(=O)c4ccccc4)c3)C(=O)N(c3ccccc3)c3ccccc32)cc1 | 490 nM |  |  |
| COc1ccc(N(C(=O)CN2C(=O)[C@@H](NC(=O)Nc3cccc(C(=O)c4ccccc4)c3)C(=O)N(c3ccccc3)c3ccccc32)C(C)C)cc1 | 710 nM | Antagonist |  |
| COc1ccc(N(C(=O)CN2C(=O)[C@H](NC(=O)Nc3cccc(C(=O)c4ccccc4)c3)C(=O)N(c3ccccc3)c3ccccc32)C(C)C)cc1 | 61 nM |  | 150 nM |
| COc1ccc(N(C)C(=O)CN2C(=O)[C@@H](NC(=O)Nc3cccc(C(=O)c4ccccc4)c3)C(=O)N(c3ccccc3)c3ccccc32)cc1 | 470 nM |  |  |
